Patent US20200069691A1, “HETEROCYCLIC COMPOUNDS AS HIV PROTEASE INHIBITORS” (Merck Sharp & Dohme Corp., priority 2016, published 2020)

Molecular target: T1, wild-type HIV-1 protease (Human immunodeficiency virus type 1 group M subtype B, UniProt P04585)
T1 construct: Escherichia coli expressed wild-type HIV-1 protease protein
Assay: Assay for Inhibition of Microbial Expressed HIV Protease (peptide substrate cleavage, LC-MS/MS readout)
Format: biochemical
Conditions: E. coli expressed wild-type HIV-1 protease, mean of at least two independent experiments, read-out: HIV Pr Enzyme HIV1 PR IC50
Experimental: Assay for Inhibition of Microbial Expressed HIV Protease
Inhibition of Escherichia coli expressed wild-type HIV-1 protease protein was carried out with a peptide substrate [Val-Ser-Gln-Asn-(βnaphtyl)Ala-Pro-Ile-Val]. The inhibitor compound was preincubated with HIV-1 protease enzyme in assay buffer (50 mM sodium acetate, pH 5.5, 100 mM NaCl, and 0.1% BSA) for 30 minutes at room temperature. Peptide substrate was added to 400 μM in a total volume of 20 μL containing […] HIV-1 protease (final) after which the reaction was incubated for 1 hour at 30° C. […] The extent of inhibition of the reaction was determined from the peak area of the products.
Data shown in the table reflects the mean of at least two independent experiments.

SMILES	IC50
N=C1NC(c2ccc(F)cc2)(c2ccc(F)cc2)C(=O)N1Cc1cccc(C(=O)N2CCC(n3c(=O)[nH]c4ncccc43)CC2)c1 [Compound 332, 1-{1-[(3-{[4,4-bis(4-fluorophenyl)-2-imino-5-oxoimidazolidin-1-yl]methyl}phenyl)carbonyl]piperidin-4-yl}-1,3-dihydro-2H-imidazo[4,5-b]pyridin-2-one]	68 nM
CC(c1cccc(C(=O)N2Cc3ccccc3C2)c1)N1C(=N)NC(c2ccccc2)(c2ccccc2)C1=O (stereo not shown) [Compound 224, 3-{1-[3-(1,3-dihydro-2H-isoindol-2-ylcarbonyl)phenyl]ethyl}-2-imino-5,5-diphenylimidazolidin-4-one]	11.9 nM
CC(C)CCC1(c2ccc(F)cc2)NC(=N)N(Cc2ccc(C(F)(F)F)c(C(=O)N3CCc4c(cnn4-c4ccccc4)C3)c2)C1=O (stereo not shown) [Compound 164, 5-(4-fluorophenyl)-2-imino-5-(3-methylbutyl)-3-{3-[(1-phenyl-1,4,6,7-tetrahydro-5H-pyrazolo[4,3-c]pyridin-5-yl)carbonyl]-4-(trifluoromethyl)benzyl} imidazolidin-4-one]	34.1 nM
CC(C)C[C@]1(c2ccccc2)NC(=N)N([C@H](C)c2cccc(C(=O)N3Cc4nccnc4C3)c2)C1=O [Compound 237, 3-{(1R)-1-[3-(5,7-dihydro-6H-pyrrolo[3,4-b]pyrazin-6-ylcarbonyl)phenyl]ethyl}-2-imino-5-(2-methylpropvl)-5-phenylimidazolidin-4-one]	14.5 nM
N=C1N[C@](CCCC(F)(F)F)(c2ccc(F)cc2)C(=O)N1Cc1ccc(C(F)(F)F)c(C(=O)N2Cc3cnc(-c4cccc(-n5nccn5)c4)nc3C2)c1 [Compound 95, (5R)-5-(4-fluorophenyl)-2-imino-3-[3-({2-[3-(2H-1,2,3-triazol-2-yl)phenyl]-5,7-dihydro-6H-pyrrolo-[3,4-d]pyrimidin-6-yl}carbonyl)-4-(trifluoromethyl)benzyl]-5-(4,4,4-trifluorobutyl)imidazolidin-4-one]	19.4 nM
N=C1N[C@](CCCC(F)(F)F)(c2ccc(F)cc2)C(=O)N1Cc1ccc(C(F)(F)F)c(C(=O)N2Cc3cnc(-c4cnn5c4CCC5)nc3C2)c1 [Compound 34, (5R)-3-[3-{[2-(5,6-dihydro-4H-pyrrolo[1,2-b]pyrazol-3-yl)-5,7-dihydro-6H-pyrrolo[3,4-d]pyrimidin-6-yl]carbonyl}-4-(trifluoromethyl)benzyl]-5-(4-fluorophenyl)-2-imino-5-(4,4,4-trifluorobutyl)imidazolidin-4-one]	3.36 nM
N#Cc1ncc2c(n1)CN(C(=O)c1cc(CN3C(=N)NC(c4ccccc4)(c4ccccc4)C3=O)ccc1C(F)(F)F)C2 [Compound 136, 6-({5-[(2-imino-5-oxo-4,4-diphenylimidazolidin-1-yl)methyl]-2-(trifluoromethyl)phenyl}-carbonyl)-6,7-dihydro-5H-pyrrolo[3,4-d]pyrimidine-2-carbonitrile]	1.81 nM
CC(C)CCC1(c2cccc(-c3cccnc3)c2)NC(=N)N(Cc2cccc(C(=O)N3Cc4cccnc4C3)c2)C1=O (stereo not shown) [Compound 360, 3-[3-(5,7-dihydro-6H-pyrrolo[3,4-b]pyridin-6-ylcarbonyl)benzyl]-2-imino-5-(3-methylbutyl)-5-(3-pyridin-3-ylphenyl)imidazolidin-4-one]	95.1 nM
CC(C)CCC1(c2cccc(F)c2)NC(=N)N(Cc2cccc(C(=O)N3Cc4ccccc4C3)c2)C1=O (stereo not shown) [Compound 270, 3-[3-(1,3-dihydro-2H-isoindol-2-ylcarbonyl)benzyl]-5-(3-fluorophenyl)-2-imino-5-(3-methylbutyl)imidazolidin-4-one]	27 nM
CC(C)CC[C@]1(c2ccc(F)cc2)NC(=N)N(C(Cc2ccccc2)c2ccc(C(F)(F)F)c(C(=O)N3CCn4c(nnc4C(F)(F)F)C3)c2)C1=O (stereo partly drawn) [Compound 54, (5R)-5-(4-fluorophenyl)-2-imino-5-(3-methylbutyl)-3-{2-phenyl-1-[4-(trifluoromethyl)-3-{[3-(trifluoromethyl)-5,6-dihydro-[1,2,4]triazolo[4,3-a]pyrazin-7(8H)-yl]carbonyl}phenyl]ethyl} imidazolidin-4-one]	5.65 nM
N=C1NC(c2ccccc2)(c2ccccc2)C(=O)N1Cc1cc(C(=O)N2Cc3cncnc3C2)cs1 [Compound 408, 3-{[4-(5,7-dihydro-6H-pyrrolo[3,4-d]pyrimidin-6-ylcarbonyl)thiophen-2-yl]methyl}-2-imino-5,5-diphenylimidazolidin-4-one]	80.5 nM
N=C1NC(c2ccc(F)cc2)(c2ccc(F)cc2)C(=O)N1Cc1ccc(C(F)(F)F)c(C(=O)N2CCC2)c1 [Compound 173, 3-[3-(azetidin-1-ylcarbonyl)-4-(trifluoromethyl)benzyl]-5,5-bis(4-fluorophenyl)-2-iminoimidazolidin-4-one]	53.3 nM
CC1(C)CCN(C(=O)c2cc(CN3C(=N)NC(c4ccc(F)cc4)(c4ccc(F)cc4)C3=O)ccc2C(F)(F)F)C1 [Compound 181, 3-{3-[(3,3-dimethylpyrrolidin-1-yl)carbonyl]-4-(trifluoromethyl)benzyl}-5,5-bis(4-fluorophenyl)-2-iminoimidazolidin-4-one]	89.8 nM
N=C1NC(c2ccccc2)(c2ccccc2)C(=O)N1Cc1cccc(C(=O)N2Cc3nccnc3C2)c1 [Compound 219, 3-[3-(5,7-dihydro-6H-pyrrolo[3,4-b]pyrazin-6-ylcarbonyl)benzyl]-2-imino-5,5-diphenylimidazolidin-4-one]	11 nM
N=C1N[C@](CCCC(F)(F)F)(c2ccc(F)cc2)C(=O)N1Cc1ccc(C(F)(F)F)c(C(=O)N2Cc3cnc(-c4cnn5c4CCCC5)nc3C2)c1 [Compound 28, (5R)-5-(4-fluorophenyl)-2-imino-3-[3-{[2-(4,5,6,7-tetrahydropyrazolo-[1,5-a]pyridin-3-yl)-5,7-dihydro-6H-pyrrolo[3,4-d]pyrimidin-6-yl]carbonyl}-4-(trifluoromethyl)-benzyl]-5-(4,4,4-trifluorobutyl)imidazolidin-4-one]	3.04 nM
CC(C)CC(c1ccc(C(F)(F)F)c(C(=O)N2Cc3nccnc3C2)c1)N1C(=N)N[C@](CC2CCOCC2)(c2ccc(F)cc2)C1=O (stereo partly drawn) [Compound 14, (5R)-3-{1-[3-(5,7-dihydro-6H-pyrrolo[3,4-b]pyrazin-6-ylcarbonyl)-4-(trifluoromethyl)phenyl]-3-methylbutyl}-5-(4-fluorophenyl)-2-imino-5-(tetrahydro-2H-pyran-4-ylmethyl)imidazolidin-4-one]	1.77 nM
C[C@H](c1cccc(C(=O)N2Cc3ccccc3C2)c1)N1C(=N)NC(c2ccc(F)cc2)(c2ccc(F)cc2)C1=O [Compound 231, 3-{(1R)-1-[3-(1,3-dihydro-2H-isoindol-2-ylcarbonyl)phenyl]ethyl}-5,5-bis(4-fluorophenyl)-2-iminoimidazolidin-4-one]	13.3 nM
CC(=O)N1CCN(C(=O)c2cccc(CN3C(=N)NC(c4ccccc4)(c4ccccc4)C3=O)c2)CC1 [Compound 352, 3-{3-[(4-acetylpiperazin-1-yl)carbonyl]benzyl}-2-imino-5,5-diphenylimidazolidin-4-one]	86.9 nM
N=C1NC(CCC2CC2)(c2ccc(C(F)(F)F)cc2)C(=O)N1Cc1ccc(C(F)(F)F)c(C(=O)N2CCn3c(nnc3C(F)(F)F)C2)c1 (stereo not shown) [Compound 125, 5-(2-cyclopropylethyl)-2-imino-5-[4-(trifluoromethyl)phenyl]-3-[4-(trifluoromethyl)-3-{[3-(trifluoromethyl)-5,6-dihydro-[1,2,4]triazolo[4,3-a]pyrazin-7(8H)-yl]carbonyl}benzyl] imidazolidin-4-one]	57.2 nM
N=C1NC(c2ccccc2)(c2ccccc2)C(=O)N1Cc1cccc(C(=O)N2Cc3cncnc3C2)c1 [Compound 310, 3-[3-(5,7-dihydro-6H-pyrrolo[3,4-d]pyrimidin-6-ylcarbonyl)benzyl]-2-imino-5,5-diphenylimidazolidin-4-one]	51.7 nM
Cc1nnc(-c2cccc(-c3ncc4c(n3)CN(C(=O)c3cc(CN5C(=N)N[C@](CCCC(F)(F)F)(c6ccc(F)cc6)C5=O)ccc3C(F)(F)F)C4)c2)o1 [Compound 48, (5R)-5-(4-fluorophenyl)-2-imino-3-[3-({2-[3-(5-methyl-1,3,4-oxadiazol-2-yl)phenyl]-5,7-dihydro-6H-pyrrolo[3,4-d]pyrimidin-6-yl}carbonyl)-4-(trifluoromethyl)-benzyl]-5-(4,4,4-trifluorobutyl)-imidazolidin-4-one]	5.26 nM
N=C1NC(c2ccccc2)(c2ccccc2)C(=O)N1Cc1cccc(C(=O)N2CCc3nccnc3C2)c1 [Compound 295, 3-[3-(7,8-dihydropyrido[3,4-b]pyrazin-6(5H)-ylcarbonyl)benzyl]-2-imino-5,5-diphenylimidazolidin-4-one]	40.1 nM
COC(=O)N1CCN(C(=O)c2cccc(CN3C(=N)NC(CCC(C)C)(c4ccccc4)C3=O)c2)CC1 (stereo not shown) [Compound 255, methyl 4-[(3-{[2-imino-4-(3-methylbutyl)-5-oxo-4-phenylimidazolidin-1-yl]methyl}phenyl)carbonyl] piperazine-1-carboxylate]	20.9 nM
N=C1N[C@](CCCC(F)(F)F)(c2ccc(F)cc2)C(=O)N1Cc1ccc(C(F)(F)F)c(C(=O)N2Cc3cnc(-c4cnc(-c5ccc(F)cc5)o4)nc3C2)c1 [Compound 113, (5R)-5-(4-fluorophenyl)-3-[3-({2-[2-(4-fluorophenyl)-1,3-oxazol-5-yl]-5,7-dihydro-6H-pyrrolo[3,4-d]pyrimidin-6-yl}carbonyl)-4-(trifluoromethyl)benzyl]-2-imino-5-(4,4,4-trifluorobutyl)imidazolidin-4-one]	31.9 nM
N=C1NC(c2ccccc2)(c2ccccc2)C(=O)N1Cc1ccc(Cl)c(C(=O)N2Cc3cccnc3C2)c1 [Compound 368, 3-[4-chloro-3-(5,7-dihydro-6H-pyrrolo[3,4-b]pyridin-6-ylcarbonyl)benzyl]-2-imino-5,5-diphenylimidazolidin-4-one]	5.42 nM
